Results from patent EP0973746B1, “SUBSTITUTED 3-CYANO QUINOLINES” (Wyeth Holdings Corporation, priority 1997, dated 1998).
pIC50: −log10 of the molar value. Converted amounts (≈) assume the structure as drawn. Read-outs that look alike come from different tables or passages of the source.

Assays:
[1] = biological target: Epithelial Cell Kinase (ECK) (Homo sapiens, UniProt P29317); test: biochemical
Experimental: In this standard pharmacological test procedure, a biotinylated peptide substrate is first immobilized on neutravidin-coated microtiter plates. The test drug, the Epithelial Cell Kinase (ECK), Mg^++, sodium vanadate (a protein tyrosine phosphatase inhibitor), and an appropriate buffer to maintain pH (7.2) are then added to the immobilized substrate-containing microtiter wells. ATP is then added to initiate phosphorylation. After incubation, the assay plates are washed with a suitable buffer leaving behind phosphorylated peptide which is exposed to horse radish peroxidase (HRP)-conjugated anti-phosphotyrosine monoclonal antibody. The antibody-treated plates are washed again and the HRP activity in individual wells is quantified as a reflection of degree of substrate phosphorylation.

SW620 = test: Inhibition of cancer cell growth as measured by cell number, SW620; type: cell-based, human; conditions: for IC50: Homo sapiens, SW-620, 48 h;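 as to all read-outs here: SW620 was included as a cell line with little or no EGFR or HER2/neu expression, in contrast to receptor-overexpressing lines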
Excerpt: (§1) The cell lines were chosen since they overexpressed epidermal growth factor receptor (EGFR) (i.e. A431) or HER2/neu (SKBR3), or had little to no expression of the these receptors (SW620, LOX, MCF7).

[2] = biological target: recombinant human MEK 1 (MAPKK) and recombinant human ERK2 (MAPK); test: Mitogen Activated Protein Kinase (MAPK) assay, two component coupled MEK 1 / ERK2; type: biochemical; conditions: separate entries for the same compound = evaluated more than one time;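 also: MEK 1-activated ERK2 phosphorylates MBP or Myc peptide with 33P-ATP, filter capture and scintillation counting, inhibitor preincubated with ERK2 30 min at 0 °C, inhibition relative to uninhibited control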
MCF7 = test: Inhibition of cancer cell growth as measured by cell number, MCF7; type: cell-based, human; conditions: Homo sapiens, MCF7, 48 h, read-out: IC50 MCF7, cell number, Sulforhodamine B, 48 hours exposure; Table 8;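 also: MCF7 was included as a line with little or no EGFR or HER2/neu expression, in contrast to the receptor-overexpressing lines of the panel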
Excerpt: as §1

A431 = test: Inhibition of cancer cell growth as measured by cell number, A431; type: cell-based, human; conditions: Homo sapiens, A-431, 48 h;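 also: human A431 line, picked because it overexpresses epidermal growth factor receptor (EGFR)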
Excerpt: as §1

[3] = biological target: T1, Kinase insert Domain containing Receptor (KDR: the catalytic domain of the VEGF receptor) (Homo sapiens, UniProt P35968); test: Inhibition of Kinase insert Domain containing Receptor (KDR); type: biochemical; conditions: for IC50: pH 7.2, radioactive format, read-out: KDR IC50 (converted);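 as to all read-outs here: KDR phosphorylating a Glu:Tyr 4:1 copolymer with P32- or P33-labelled ATP, Mg++ and vanadate, read as acid-insoluble radiolabel, compared with compound-free reaction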
T1 construct: KDR: the catalytic domain of the VEGF receptor
T1 sequence (P35968 834-1162 limits assumed): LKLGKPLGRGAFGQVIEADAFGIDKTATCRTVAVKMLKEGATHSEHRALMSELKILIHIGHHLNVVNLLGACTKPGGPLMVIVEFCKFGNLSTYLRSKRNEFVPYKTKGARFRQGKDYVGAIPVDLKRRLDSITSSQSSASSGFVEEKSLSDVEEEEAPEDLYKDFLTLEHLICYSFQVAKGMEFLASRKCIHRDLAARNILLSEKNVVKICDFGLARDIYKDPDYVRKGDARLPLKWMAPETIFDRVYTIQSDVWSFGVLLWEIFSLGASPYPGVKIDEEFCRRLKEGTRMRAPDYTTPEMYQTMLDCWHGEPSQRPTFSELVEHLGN

[4] = biological target: T2, His-tagged cytoplasmic domain of EGFR (Homo sapiens, UniProt P00533); test: Inhibition of Epidermal Growth Factor Receptor Kinase (EGF-R) using recombinant enzyme; type: biochemical; conditions: recombinant enzyme; RR-SRC peptide; average of the number of tests; read-out: IC50;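 also: radiometric kinase assay measuring radiolabeled phosphate transfer from ATP onto the peptide tyrosine by scintillation counting, control is reaction without compound, background subtracted, IC50 from dose-response curve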
T2 construct: containing the EGFR cDNA encoding amino acids 645 - 1186 preceded by Met-Ala-(His)6; made in house; host or cells: Sf9 cells, recombinant baculovirus vHcEGFR52
T2 sequence (P00533 669-1210): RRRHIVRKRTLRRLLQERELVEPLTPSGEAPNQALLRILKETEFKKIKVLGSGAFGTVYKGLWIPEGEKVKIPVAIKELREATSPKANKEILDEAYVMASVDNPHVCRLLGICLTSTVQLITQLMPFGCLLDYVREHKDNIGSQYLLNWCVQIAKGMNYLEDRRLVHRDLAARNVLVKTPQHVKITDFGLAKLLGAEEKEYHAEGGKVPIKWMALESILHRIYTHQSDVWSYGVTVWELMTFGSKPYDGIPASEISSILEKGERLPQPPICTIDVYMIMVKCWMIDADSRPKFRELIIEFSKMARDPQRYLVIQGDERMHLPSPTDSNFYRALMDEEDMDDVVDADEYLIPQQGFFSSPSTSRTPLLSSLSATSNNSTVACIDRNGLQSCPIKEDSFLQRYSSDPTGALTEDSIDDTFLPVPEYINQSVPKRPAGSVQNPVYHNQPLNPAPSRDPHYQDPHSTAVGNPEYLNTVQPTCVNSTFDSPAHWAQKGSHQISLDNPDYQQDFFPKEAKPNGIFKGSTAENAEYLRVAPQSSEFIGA
Experimental: The enzyme used in this assay is the His-tagged cytoplasmic domain of EGFR.
Compounds to be evaluated were made into 10 mg/mL stock solutions in 100% dimethylsulfoxide (DMSO). Prior to experiment, stock solutions were diluted to 500 µM with 100% DMSO and then serially diluted to the desired concentration with HEPES buffer (30 mM HEPES pH 7.4).
For the enzyme reaction, 10 µL of each inhibitor (at various concentrations) were added to each well of a 96-well plate. […] This was allowed to sit for 10 min on ice and was followed by the addition of 5 µl peptide (80 µM final conc.), 10µl of 4X Buffer (Table A), 0.25 µL ^33P-ATP and 12 µL H2O. The reaction was allowed to run for 90 min at room temperature and was followed by spotting the entire volume on to precut P81 filter papers. The filter discs were washed 2X with 0.5% phosphoric acid and radioactivity was measured using a liquid scintillation counter.
The % inhibition of the test compound was determined for at least three different concentrations and the IC50 value was evaluated from the dose response curve. […] CPM(control) is in units of counts per minute and was a number expressing the amount of radiolabeled ATP (g-33P) incorporated into the RR-SRC peptide substrate by the enzyme after 90 minutes at room temperature in the absence of test compound as measured by liquid scintillation counting. The CPM values were corrected for the background counts produced by ATP in the absence of the enzymatic reaction. The IC50 values reported in TABLE 2 are averages of the number of tests conducted.

LOX = test: Inhibition of cancer cell growth as measured by cell number, LOX; type: cell-based, human; conditions: Homo sapiens, LOX, 48 h, read-out: IC50 LOX, cell number, Sulforhodamine B, 48 hours exposure; Table 8;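 also: LOX cells served as a line with low or absent EGFR and HER2/neu expression, in contrast to receptor-overexpressing lines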
Excerpt: as §1

SKBR3 = test: Inhibition of cancer cell growth as measured by cell number, SKBR3; type: cell-based, human; conditions: for IC50: Homo sapiens;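 as to all read-outs here: SK-BR-3 cells were selected as a line overexpressing HER2/neu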
Excerpt: as §1

[5] = tested on: human epidermoid tumors (A431); test: In vivo inhibition of the growth of human epidermoid tumors (A431); conditions: Table 11; for S/T = No. Survivors/No. Treated: Day +28 post tumor staging
Experimental: Representative compounds of this invention (listed below) were evaluated in an in vivo standard pharmacological test procedure which measured its ability to inhibit the growth of human epidermoid tumors. […] BALB/c nu/nu female mice (Charles River, Wilmington, MA) were used in this in vivo standard pharmacological test procedure. A unit of 5 X 10^6 cells were injected SC into mice. When tumors attained a mass of between 100 and 150 mg, the mice were randomized into treatment groups (day zero). […] Control animals received no drug. Tumor mass was determined every 7 days [(length X width^2)/2] for 28 days post staging. Relative tumor growth (Mean tumor mass on days 7, 14, 21, and 28 divided by the mean tumor mass on day zero) is determined for each treatment group.

[6] = read-out: IC50 A431, cell number, Sulforhodamine B, 48 hours exposure, Table 8
[7] = read-out: IC50 SW620, cell number, Sulforhodamine B, 48 hours exposure, Table 8
[8] = SK-BR-3, 48 h, read-out: IC50 SKBR3, cell number, Sulforhodamine B, 48 hours exposure, Table 8
[9] = 80 mg/kg/dose IP on days 1,5 and 9
[10] = 80 mg/kg/dose PO on days 1 through 10
[11] = SK-BR-3, 48 h, read-out: IC50 SKBR3
[12] = cell number, Sulforhodamine B, 48 hours exposure, Table 8

Sequence of Epithelial Cell Kinase (ECK) (P29317 24-976, species assumed): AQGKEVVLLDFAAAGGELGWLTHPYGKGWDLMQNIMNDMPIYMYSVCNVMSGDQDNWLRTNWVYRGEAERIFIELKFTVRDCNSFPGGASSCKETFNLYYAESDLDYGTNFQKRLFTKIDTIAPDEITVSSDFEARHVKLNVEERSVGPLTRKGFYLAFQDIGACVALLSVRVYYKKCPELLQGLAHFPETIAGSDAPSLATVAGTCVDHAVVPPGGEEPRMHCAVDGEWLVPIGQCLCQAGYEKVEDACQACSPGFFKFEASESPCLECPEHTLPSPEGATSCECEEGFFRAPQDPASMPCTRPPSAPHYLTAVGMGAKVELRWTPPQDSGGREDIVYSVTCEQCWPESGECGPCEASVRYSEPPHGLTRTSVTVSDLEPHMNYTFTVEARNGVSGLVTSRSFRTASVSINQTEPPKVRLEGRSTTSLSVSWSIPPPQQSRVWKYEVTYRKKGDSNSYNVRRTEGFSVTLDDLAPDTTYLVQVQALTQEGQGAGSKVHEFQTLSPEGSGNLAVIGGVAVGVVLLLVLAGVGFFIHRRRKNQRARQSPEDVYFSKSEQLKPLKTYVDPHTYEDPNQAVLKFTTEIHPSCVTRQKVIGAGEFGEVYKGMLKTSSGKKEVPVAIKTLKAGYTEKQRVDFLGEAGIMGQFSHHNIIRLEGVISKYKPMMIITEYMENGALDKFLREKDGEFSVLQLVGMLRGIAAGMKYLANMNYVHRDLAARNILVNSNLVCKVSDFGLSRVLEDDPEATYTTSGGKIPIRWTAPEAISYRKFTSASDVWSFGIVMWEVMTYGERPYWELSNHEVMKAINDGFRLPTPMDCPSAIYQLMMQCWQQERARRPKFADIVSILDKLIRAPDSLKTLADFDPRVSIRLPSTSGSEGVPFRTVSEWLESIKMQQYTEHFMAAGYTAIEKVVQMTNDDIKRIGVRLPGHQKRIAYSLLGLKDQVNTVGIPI

With COc1cc2ncc(C#N)c(Nc3cccc(Br)c3)c2cc1NC(=O)C=CCN1CCOCC1 [Example 200, 4-Morpholin-4-yl-but-2-enoic acid [4-(3-bromo-phenylamino)-3-cyano-7-methoxy-quinolin-6-yl]-amide] the pIC50 [1] was 4.42, the IC50 (SW620; read-out: IC50 SW620) was > 5 µg/mL and the pIC50 [2] was < 4.00.
For C=CC(=O)Nc1ccc2ncc(C#N)c(Nc3ccc(F)c(F)c3)c2c1 [Example 154, N-{3-Cyano-4-[(3,4-difluorophenyl)amino]-6-quinolinyl]-2-propenamide], the IC50 (MCF7) was 2.57 µg/mL (≈ 7.34 µM), the IC50 (A431; [6]) was 0.07 µg/mL (≈ 0.2 µM) and the IC50 [3] was > 85.6 µM. For the same molecule, the IC50 (SW620; [7]) was 0.55 µg/mL (≈ 1.57 µM), the pIC50 [2] was 4.70 and the pIC50 [4] was 6.82. For the same molecule, the IC50 (LOX) was 0.44 µg/mL (≈ 1.26 µM) and the IC50 (SKBR3; [8]) was 0.05 µg/mL (≈ 0.143 µM).
CN1CCN(CC#CC(=O)Nc2ccc3ncc(C#N)c(Nc4cccc(Br)c4)c3c2)CC1 [Example 190, N-[4-[(3-Bromophenyl)amino]-3-cyano-6-quinolinyl]-4-(N-methylpiperazino)-2-butynamide] showed a pIC50 [1] of 4.40.
In the case of COc1cc2ncc(C#N)c(Nc3ccc(C)c(O)c3)c2cc1OC [Example 229, 4-(3-Hydroxy-4-methyl-phenylamino)-6,7-dimethoxy-quinoline-3-carbonitrile], the IC50 (A431; cell number, Sulforhodamine B, 48 hours exposure, Table 8, read-out: IC50 A431) was 0.469 µg/mL (≈ 1.4 µM), the IC50 [3] was 0.596 µM and the IC50 (SW620; cell number, Sulforhodamine B, 48 hours exposure, Table 8, read-out: IC50 SW620) was > 5 µg/mL. The pIC50 [2] was > 6.00 and the IC50 (SKBR3; SK-BR-3, cell number, Sulforhodamine B, 48 hours exposure, Table 8, read-out: IC50 SKBR3) was > 5 µg/mL.
COc1cc2c(Nc3ccc(Cl)cc3F)c(C#N)cnc2cc1OCCCN1CCOCC1 [Example 81, 4-(4-Chloro-2-fluoro-phenylamino)-6-methoxy-7-(3-morpholin-4-yl-propoxy)-quinoline-3-carbonitrile] gave a pIC50 [1] of 6.37 and a pIC50 [2] of 7.00.
In the case of COc1cc2ncc(C#N)c(Nc3ccc(F)c(Br)c3)c2cc1NC(=O)C=CCN(C)C [Example 208, 4-Dimethylamino-but-2-enoic acid [4-(3-bromo-4-fluorophenylamino)-3-cyano-7-methoxy-quinolin-6-yl]-amide], the “%T/C Day 7” value [5, 9] was 14%, the “%T/C Day 14” value [5, 9] was 15% and the “%T/C Day 21” value [5, 9] was 26%. The “%T/C Day 28” value [5, 9] was 32%, the “S/T = No. Survivors/No. Treated” value [5, 9] was 5/5 and the “%T/C Day 7” value [5, 10] was 6%. The “%T/C Day 14” value [5, 10] was 6%, the “%T/C Day 21” value [5, 10] was 8% and the “%T/C Day 28” value [5, 10] was 10%. For the same molecule, the “S/T = No. Survivors/No. Treated” value [5, 10] was 5/5, the IC50 (A431; [6]) was 0.067 µg/mL (≈ 0.134 µM) and the IC50 [3] was 20.1 µM. For the same molecule, the IC50 (SW620; [7]) was 0.453 µg/mL (≈ 0.909 µM), the pIC50 [2] was 4.89 and the pIC50 [4] was 8.82. It also gave an IC50 (SKBR3; [8]) of 0.038 µg/mL (≈ 0.0763 µM).
For CCOc1cc2ncc(C#N)c(Nc3cccc(Br)c3)c2cc1NC(=O)C=CCN(CC)CC [Example 217, 4-Diethylamino-but-2-enoic acid [4-(3-bromo-phenylamino)-3-cyano-7-ethoxy-quinolin-6-yl]-amide], the pIC50 [1] was 6.94, the “%T/C Day 7” value [5, 9] was 25% and the “%T/C Day 14” value [5, 9] was 36%. For the same molecule, the “%T/C Day 21” value [5, 9] was 51%, the “%T/C Day 28” value [5, 9] was 56% and the “S/T = No. Survivors/No. Treated” value [5, 9] was 5/5. For the same molecule, the “%T/C Day 7” value [5, 10] was 30%, the “%T/C Day 14” value [5, 10] was 33% and the “%T/C Day 21” value [5, 10] was 43%. For the same molecule, the “%T/C Day 28” value [5, 10] was 42% and the “S/T = No. Survivors/No. Treated” value [5, 10] was 5/5.
Work on N#Cc1cnc2ccc(NC(=O)CCl)cc2c1Nc1cccc(Br)c1 [Example 19, N-[4-[(3-Bromophenyl)amino]-3-cyano-6-quinolinyl]-2-chloroacetamide] yielded a pIC50 [1] of 4.62 and a pIC50 [2] of 4.54.
For CCN(CC)CC=CC(=O)Nc1ccc2ncc(C#N)c(Nc3cccc(Br)c3)c2c1 [Example 100, 4-Diethylamino-but-2-enoic acid [4-(3-bromophenylamino)-3-cyano-quinolin-6-yl]-amide], the pIC50 [1] was 4.38, the IC50 (A431; read-out: IC50 A431) was 0.1 µg/mL (≈ 0.209 µM) and the IC50 (SW620; read-out: IC50 SW620) was 0.8 µg/mL (≈ 1.67 µM). For the same molecule, the pIC50 [2] was 4.70 and the IC50 (SKBR3; [11]) was 0.1 µg/mL (≈ 0.209 µM).
For COc1ccc2ncc(C#N)c(Nc3ccc(Cl)cc3F)c2c1 [Example 283, 4-(4-Chloro-2-fluoro-phenylamino)-6-methoxy-quinoline-3-carbonitrile], the pIC50 [1] was 5.04 and the pIC50 [2] was < 4.00.
COc1ccc2c(Nc3cccc(Br)c3)c(C#N)cnc2c1 [Example 3, 4-[(3-Bromophenyl)amino]-7-methoxy-3-guinolinecarbonitrile] was tested, and the pIC50 [1] was 4.55 and the pIC50 [2] was < 4.00.
In the case of CC(C)N(C)CC#CC(=O)Nc1ccc2ncc(C#N)c(Nc3cccc(Br)c3)c2c1 [Example 191, N-[4-[(3-Bromophenyl)amino]-3-cyano-6-quinolinyl]-4-(N-isopropyl-N-methylamino)-2-butynamide], the pIC50 [1] was 4.38 and the IC50 (SKBR3; [11]) was 0.06 µg/mL (≈ 0.126 µM).
N#Cc1cnc2cc(O)c(O)cc2c1Nc1cccc(Br)c1 [Example 39, 4-[(3-Bromophenyl)amino]-6,7-dihydroxy-3-quinolinecarbonitrile] was tested, and the pIC50 [1] was 4.55 and the pIC50 [2] was 4.40.
N#Cc1cnc2ccc(NC(=O)C=CCN3CCOCC3)cc2c1Nc1ccc(F)c(Br)c1 [Example 174, N-{4-[(3-Bromo-4-fluorophenyl)amino]-3-cyano-6-quinolinyl] -4-morpholino-2-butenamide] was tested, and the pIC50 [1] was 4.41, the IC50 (SW620; read-out: IC50 SW620) was > 5 µg/mL and the pIC50 [2] was 5.60.
Molecule COc1ccc2ncc(C#N)c(Nc3ccc(C)c(O)c3)c2c1 [Example 284, 4-(3-Hydroxy-4-methyl-phenylamino)-6-methoxy-quinoline-3-carbonitrile] has a pIC50 [1] of 4.48 and a pIC50 [2] of 5.40.
With N#Cc1cnc2cc3c(cc2c1Nc1cccc(Br)c1)OCO3 [Example 40, 8-[(3-Bromophenyl)amino]-[1,3]-dioxolo[4,5-g]quinoline-7-carbonitrile] the pIC50 [1] was 4.57 and the pIC50 [2] was < 4.00.
N#Cc1cnc2ccc(NC(=O)C=CCN3CCOCC3)cc2c1Nc1ccc(F)c(Cl)c1 [Example 147, N-{4-[(3-Chloro-4-fluorophenyl)amino]-3-cyano-6-quinolinyl} -4-morpholino-2-butenamide] gave a pIC50 [1] of 4.37 and a pIC50 [2] of 4.10.
Work on COc1cc2ncc(C#N)c(Nc3ccc(Cl)cc3F)c2cc1OCCCN1CCOCC1 [Example 127] yielded a pIC50 [3] of 4.67 and a pIC50 [2] of 5.22.
For COc1cc2c(Nc3ccc(Cl)cc3F)c(C#N)cnc2c(OC)c1OC [Example 234, 4-(4-Chloro-2-fluoro-phenylamino)-6,7,8-trimethoxy-quinoline-3-carbonitrile], the IC50 [3] was > 77.4 µM and the pIC50 [2] was < 4.00.
In the case of COc1cccc2c(Nc3ccc(Cl)cc3F)c(C#N)cnc12 [Example 275, 4-(4-Chloro-2-fluoro-phenylamino)-8-methoxy-quinoline-3-carbonitrile], the IC50 [3] was > 91.5 µM and the pIC50 [2] was < 4.00.
In the case of COc1cc2c(Nc3ccc(C)c(O)c3)c(C#N)cnc2c(OC)c1OC [Example 233, 4-(3-Hydroxy-4-methyl-phenylamino)-6,7,8-trimethoxy-quinoline-3-carbonitrile], the IC50 [3] was > 82.1 µM and the pIC50 [2] was 4.10.
In the case of COc1cc2ncc(C#N)c(Nc3ccc(O)c(Cl)c3)c2cc1OC [Example 249, 4-(3-Chloro-4-hydroxy-phenylamino)-6,7-dimethoxy-quinoline-3-carbonitrile], the IC50 [3] was > 28.1 µM and the pIC50 [2] was 4.82.
In the case of CCOc1cc2ncc(C#N)c(Nc3cccc(Br)c3)c2cc1NC(=O)C=CCN1CCOCC1 [Example 218, 4-Morpholin-4-yl-but-2-enoic acid [4-(3-bromo-phenylamino)-3-cyano-7-ethoxy-quinolin-6-yl]-amide], the IC50 [3] was > 55.9 µM, the IC50 (SW620; [7]) was 1.85 µg/mL (≈ 3.46 µM) and the “IC50 SW620” value (SW620; [12]) was 1.235 µg/mL (≈ 2.3 µM). The IC50 (SKBR3; [8]) was 0.029 µg/mL (≈ 0.0541 µM) and the “IC50 SKBR3” value (SKBR3; [12]) was 0.047 µg/mL (≈ 0.0876 µM).
